Assay results: US10301630B2, “Methods and compositions for unsilencing imprinted genes” (The University of North Carolina at Chapel Hill, priority 2010, dated 2019)

Experiments:
cultured neurons [1] = assay: Affymetrix GeneChip expression in cultured neurons; format: cell-based
cultured neurons [2] = assay: Neuron health / cell death in treated cultures; format: cell-based, mouse
Topoisomerase I = molecular target: T1, Topoisomerase I (Mus musculus, UniProt Q04750); assay: Topoisomerase depletion assay (free TOP1 by Western blot); format: cell-based; conditions: 300 nM, 72 h, cultured neurons
T1 construct: immunoblotted with an anti-Topoisomerase I antibody (Santa Cruz) to detect free Topoisomerase I; endogenous in cells; host or cells: DIV7 primary mouse cortical neurons (Ube3a m-/p+ and wild type)
T1 sequence (Q04750 1-767): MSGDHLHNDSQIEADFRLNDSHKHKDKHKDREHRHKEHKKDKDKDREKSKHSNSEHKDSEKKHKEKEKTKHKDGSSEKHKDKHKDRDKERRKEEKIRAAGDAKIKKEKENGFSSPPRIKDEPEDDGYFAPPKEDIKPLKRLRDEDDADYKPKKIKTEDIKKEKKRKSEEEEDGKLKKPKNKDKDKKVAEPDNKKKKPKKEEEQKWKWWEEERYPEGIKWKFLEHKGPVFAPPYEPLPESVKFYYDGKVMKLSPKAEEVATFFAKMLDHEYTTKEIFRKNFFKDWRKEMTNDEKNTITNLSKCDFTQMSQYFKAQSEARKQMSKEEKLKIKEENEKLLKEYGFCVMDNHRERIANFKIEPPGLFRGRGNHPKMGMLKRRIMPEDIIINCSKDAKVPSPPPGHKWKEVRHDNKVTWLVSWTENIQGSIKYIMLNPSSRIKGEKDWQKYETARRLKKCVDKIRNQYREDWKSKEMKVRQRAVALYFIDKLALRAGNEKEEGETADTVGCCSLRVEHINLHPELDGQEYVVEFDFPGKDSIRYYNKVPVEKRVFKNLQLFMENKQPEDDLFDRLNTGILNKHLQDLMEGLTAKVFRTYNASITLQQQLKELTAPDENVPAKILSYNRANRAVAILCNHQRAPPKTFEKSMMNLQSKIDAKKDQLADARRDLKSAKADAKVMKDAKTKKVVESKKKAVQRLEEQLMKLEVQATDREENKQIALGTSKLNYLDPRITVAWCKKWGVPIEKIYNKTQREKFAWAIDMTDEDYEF
Procedure: Cells were harvested and lysed on ice for 30 min in RIPA buffer (50 mM Tris-HCl, 150 mM NaCl, 1% Triton X-100, 0.5% sodium deoxycholate, 0.1% SDS, pH 7.4) to preserve topoisomerase cleavable complexes. Cell extracts were then centrifuged at 14,000 rpm at 4° C. to pellet insoluble debris. 30 μg of the cell supernatant was diluted in 2×SDS sample buffer and separated on a 7.5% SDS-PAGE gel, transferred to PVDF membrane, and immunoblotted with an anti-Topoisomerase I antibody (Santa Cruz) to detect free Topoisomerase I. An anti-β-Tubulin (Sigma) antibody was used as a loading control.

[3] = system: Ube3a, Ube3a-ATS, Snrpn mRNA; assay: Quantitative PCR of Ube3a, Ube3a-ATS and Snrpn in Ube3a m-/p+ neurons; format: cell-based, mouse; conditions: 300 nM, cultured neurons from Ube3a m−/p+ mice
Procedure: First strand cDNA synthesis was performed on 500 ng-2 μg total RNA using Superscript III reverse transcriptase (Invitrogen) primed with random hexamers. qPCR reactions used SYBR green (Invitrogen) and were run on a Rotorgene 3000 (Corbett Research). Standard curves and Ct-values were generated using Rotorgene analysis software version 6.0. Expression of Ube3a, Ube3a-ATS, Ipw and Snrpn were determined after normalization of each cDNA sample to expression levels of the housekeeping genes Rp122 and Actb.

UBE3A protein = assay: Western blot of endogenous UBE3A protein in Ube3a m-/p+ cortical neurons; format: cell-based, mouse; conditions: 300 nM, 72 h
Procedure: Embryonic day 13.5 to 15.5 mice that encode the paternal Ube3a-YFP transgene or Ube3a^m−/p+ mice (i.e., AS model mice) were identified and primary cortical neuronal cultures were obtained and plated in 6 well plates. […] To assess Ube3a-YFP protein levels, 7.5 ug of total protein lysates from Ube3a-YFP neurons were separated by 8% SDS-polyacrylamide gel electrophoresis, proteins were transferred to nitrocellulose membranes and immunoblotting was performed using a rabbit anti-GFP antibody (Novus) and Alexa Fluor 680 goat anti-rabbit IgG (Invitrogen). Ube3a-YFP protein bands were visualized by a LiCOR system and to control for protein loading, Ube3a-YFP protein levels were normalized to actin level detected in each sample. To assess Ube3a protein level, immunoblotting was performed using rabbit anti-Ube3a antibody (Abeam) and Alexa Fluor 680 goat anti-rabbit IgG (Invitrogen).
E13.5-15.5 primary cortical neurons from Ube3a-YFP, Ube3a-deficient, or wild-type mice were plated in 6-well plates. At DIV7, neurons were treated with drug or 0.1% DMSO for 72 h, and then total protein lysates were obtained by lysis buffer (1% Triton X-100, 5 mM EDTA, 0.15M NaCl, 10 mM Tris-HCl, pH 7.5, phosphatase inhibitor cocktails 1, protease inhibitor cocktail). […] To control for protein loading, UBE3A-YFP or UBE3A protein levels were normalized to actin levels detected in each sample.

[4] = system: Ube3a-ATS/Snrpn promoter region; assay: Bisulfite sequencing of the Ube3a-ATS/Snrpn promoter region; format: cell-based, mouse; conditions: 300 nM, 72 h, cortical neurons
Procedure: Bisulfite conversion was performed on 200 ng genomic DNA using the MethylCode kit (Invitrogen). 1 μL of converted DNA was used as template for PCR. A first round of PCR was performed as described in Peery et al. using the W18 (5′-[…]) (SEQ ID NO:5) and W19 (5′-[…]) (SEQ ID NO:6) or W16 (5′-[…]) (SEQ ID NO:7) and W17 (5′-[…]) (SEQ ID NO:8) primer sets^38. A second semi-nested round of PCR was performed using 1 μL of the primary PCR reaction as template. For semi-nested PCR, the W18 primer was used with the nested W19-inside primer (5′-[…]) (SEQ ID NO:9), or the W16 primer was used with the nested W17-inside primer (5′-[…]) (SEQ ID NO:10). Products were separated on an agarose gel and extracted using the Qiaquick gel extraction kit (Qiagen). Purified DNA was ligated into the pGem-T Easy vector (Promega). Individual clones were amplified and sequenced.

Row | Structure (SMILES) | apoptotic pathways by microarray (cultured neurons [1]) | neuron density and health (DAPI counterstain) (cultured neurons [2]; 10 μM for 72 hr) | pyknotic nuclei versus vehicle (cultured neurons [2]; effective concentrations, cultures) | amount of free (unbound) TOP1 (Topoisomerase I) | Ube3a mRNA expression [3] | Ube3a-ATS and Snrpn mRNA expression [3] | UBE3A protein level in neurons from Ube3a m−/p+ mice (UBE3A protein) | methylation at the imprinting center [4]
1 | CCc1c2c(nc3ccc(OC(=O)N4CCC(N5CCCCC5)CC4)cc13)-c1cc3c(c(=O)n1C2)COC(=O)[C@]3(O)CC [Irinotecan] | no evidence for drug-induced increases in apoptotic pathways | Neuron density and health is similar | a similar number of pyknotic nuclei |  |  |  |  | 
2 | CC[C@@]1(O)C(=O)OCc2c1cc1n(c2=O)Cc2cc3c(CN(C)C)c(O)ccc3nc2-1 [Topotecan] |  |  |  | significantly reduce the amount of free TOP1 | upregulated expression of Ube3a | downregulating expression of Ube3a-ATS and Snrpn | restored UBE3A protein to wild-type levels | did not alter methylation at the imprinting center
